Patent US20260250257A1, “ANTIBACTERIAL AND SYNERGISTIC ACTIVE COMPOUND AND USE THEREOF” (EAST CHINA UNIVERSITY OF SCIENCE AND TECHNOLOGY, priority 2023, published 2026)
≈ marks a conversion by molar mass, not a printed value.

Columns and labels:
Format in all cases: cell-based
[1] = system: ATCC19606 strain (Acinetobacter baumannii); experiment: Checkerboard antibacterial synergistic activity test with polymyxin E (FIC); parameters: key: FIC≤0.5 synergy; 0.5–1 additive; 1–2 indifferent; ≥2 antagonism; settings: combined with polymyxin E
Outline: (§1)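 FIC values come from a microdilution checkerboard crossing polymyxin E against the test compound in MH medium, with uninoculated blanks included. Incubation lasts 16 h at 37° C. Scoring: synergy at FIC ≤0.5, additivity between 0.5 and 1, indifference between 1 and 2, antagonism at 2 or above.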

[2] = system: ATCC9027 strain (Pseudomonas aeruginosa); experiment: as above; parameters: key: FIC≤0.5 synergy; 0.5–1 additive; 1–2 indifferent; ≥2 antagonism; settings: combined with polymyxin E
Outline: as §1

[3] = system: ATCC25922 strain (Escherichia coli); experiment: as above; parameters: key: FIC≤0.5 synergy; 0.5–1 additive; 1–2 indifferent; ≥2 antagonism; settings: combined with polymyxin E
Outline: as §1

[4] = system: ATCC13883 strain (Klebsiella pneumoniae); experiment: as above; parameters: key: FIC≤0.5 synergy; 0.5–1 additive; 1–2 indifferent; ≥2 antagonism; settings: combined with polymyxin E
Outline: as §1

[5] = system: ATCC19606 strain (Acinetobacter baumannii); experiment: Broth microdilution, antibacterial activity of the compound used alone
Text: (§2) The broth microdilution method was used to test the antibacterial effects of the compounds of the present invention against various Gram-negative bacterial strains when used alone.

[6] = system: ATCC9027 strain (Pseudomonas aeruginosa); experiment: as above
Text: as §2

[7] = system: ATCC25922 strain (Escherichia coli); experiment: as above
Text: as §2

[8] = system: ATCC13883 strain (Klebsiella pneumoniae); experiment: as above
Text: as §2

Row | Structure (SMILES) | Synergistic activity (FIC value) ATCC19606 [1] | Synergistic activity (FIC value) ATCC9027 [2] | Synergistic activity (FIC value) ATCC25922 [3] | Synergistic activity (FIC value) ATCC13883 [4] | Antibacterial activity of the compound of Formula I, ATCC19606 [5] | Antibacterial activity of the compound of Formula I, ATCC9027 [6] | Antibacterial activity of the compound of Formula I, ATCC25922 [7] | Antibacterial activity of the compound of Formula I, ATCC13883 [8] | MIC ([5]; read-out: Antibacterial activity of the compound of Formula I, ATCC19606) | MIC ([6]; read-out: Antibacterial activity of the compound of Formula I, ATCC9027) | MIC ([7]; read-out: Antibacterial activity of the compound of Formula I, ATCC25922) | MIC ([8]; read-out: Antibacterial activity of the compound of Formula I, ATCC13883)
1 | O=[N+]([O-])c1ccc(Oc2ccc(I)cc2I)cc1-c1c[se]c(N=C2NCCCN2)n1 [Compound I-158] | 0.03 | 0.28 | 0.18 | 0.16 | 256 µg/mL | 256 µg/mL | 256 µg/mL | 256 µg/mL | – | – | – | –
2 | COc1ccc(Oc2cc(Br)cc(-c3csc(N=C4NCCCN4)n3)c2)c(OC)c1 [Compound I-159] | 0.31 | 0.06 | 0.14 | 0.09 | 256 µg/mL | 256 µg/mL | 256 µg/mL | 256 µg/mL | – | – | – | –
3 | Clc1cc(Oc2ccc(Cl)cc2Cl)cc(-c2csc(N=C3NCCCN3)n2)c1 [Compound I-160] | 0.03 | 0.28 | 0.18 | 0.16 | 256 µg/mL | 256 µg/mL | 256 µg/mL | 256 µg/mL | – | – | – | –
4 | Fc1cc(Oc2ccc(Cl)cc2Cl)cc(-c2csc(N=C3NCCCN3)n2)c1 [Compound I-161] | 0.31 | 0.06 | 0.14 | 0.09 | 256 µg/mL | 256 µg/mL | 256 µg/mL | 256 µg/mL | – | – | – | –
5 | Cc1[nH]c(N=C2NCCCN2)nc1-c1cc(C(C)(C)C)cc(C(C)(C)C)c1 [Compound I-162] | 0.03 | 0.28 | 0.18 | 0.16 | 256 µg/mL | 256 µg/mL | 256 µg/mL | 256 µg/mL | – | – | – | –
6 | CC(C)(C)c1cc(-c2csc(NC3=NCCCN3)n2)cc(C(C)(C)C)c1O [Compound I-163] | 0.38 | 0.04 | 0.04 | 0.19 | – | – | – | – | 256 µg/mL (≈ 662 µM) | 64 µg/mL (≈ 166 µM) | 128 µg/mL (≈ 331 µM) | 128 µg/mL (≈ 331 µM)
7 | CC(C)c1ccccc1-c1nc(N=C2NCCCN2)sc1Br [Compound I-164] | 0.15 | 0.62 | 0.39 | 0.33 | 256 µg/mL | 256 µg/mL | 256 µg/mL | 256 µg/mL | – | – | – | –
8 | CCc1oc(N=C2NCCCN2)nc1-c1cccc(C(C)C)c1 [Compound I-165] | 0.13 | 0.53 | 0.38 | 0.31 | 256 µg/mL | 256 µg/mL | 256 µg/mL | 256 µg/mL | – | – | – | –
9 | CC(C)c1ccc(-c2c[nH]c(N=C3NCCCN3)n2)cc1 [Compound I-166] | 1.25 | 1.25 | 0.5 | 1.25 | 256 µg/mL | 256 µg/mL | 256 µg/mL | 256 µg/mL | – | – | – | –
10 | Cc1sc(N=C2NCCCN2)nc1-c1cc(C(C)C)cc(C(C)C)c1 [Compound I-167] | 0.3 | 0.63 | 0.5 | 0.25 | 256 µg/mL | 256 µg/mL | 256 µg/mL | 256 µg/mL | – | – | – | –
11 | CC(C)c1cc(-c2nc(N=C3NCCCN3)sc2Cl)cc(C(C)C)c1O [Compound I-168] | 0.28 | 0.63 | 0.5 | 0.25 | 256 µg/mL | 256 µg/mL | 256 µg/mL | 256 µg/mL | – | – | – | –
12 | Cc1c(-c2coc(N=C3NCCCN3)n2)ccc(Cl)c1C#N [Compound I-169] | 0.15 | 0.62 | 0.39 | 0.33 | 256 µg/mL | 256 µg/mL | 256 µg/mL | 256 µg/mL | – | – | – | –
13 | Cc1ccc(O)c(-c2c[nH]c(N=C3NCCCN3)n2)c1 [Compound I-170] | 0.12 | 0.31 | 0.38 | 0.31 | 256 µg/mL | 256 µg/mL | 256 µg/mL | 256 µg/mL | – | – | – | –
14 | CNS(=O)(=O)c1cc(-c2c[se]c(N=C3NCCCN3)n2)ccc1C [Compound I-171] | 0.75 | 0.56 | 0.5 | 0.63 | 256 µg/mL | 256 µg/mL | 256 µg/mL | 256 µg/mL | – | – | – | –
15 | CCc1sc(N=C2NCCCN2)nc1-c1cc(C)c(F)c(C)c1 [Compound I-172] | 0.52 | 1.25 | 0.63 | 0.52 | 256 µg/mL | 64 µg/mL | 128 µg/mL | 128 µg/mL | – | – | – | –
16 | Cc1cc(-c2csc(N=C3NCCCN3)n2)cc(C)c1O [Compound I-173] | 0.75 | 0.63 | 0.5 | 0.38 | 256 µg/mL | 256 µg/mL | 256 µg/mL | 256 µg/mL | – | – | – | –
17 | N#Cc1ccc(-c2csc(N=C3NCCCN3)n2)c(Br)c1 [Compound I-174] | 0.52 | 1.25 | 0.63 | 0.52 | 256 µg/mL | 256 µg/mL | 256 µg/mL | 256 µg/mL | – | – | – | –
18 | Clc1sc(N=C2NCCCN2)nc1-c1cccc(Br)c1 [Compound I-175] | 0.5 | 1.25 | 1.25 | 1.25 | 256 µg/mL | 256 µg/mL | 256 µg/mL | 256 µg/mL | – | – | – | –
